# In US12285395B2, “Pharmaceutical composition for preventing or treating allodynia caused by anticancer agents” (UNIVERSITY-INDUSTRY COOPERATION GROUP OF KYUNG HEE …, priority 2018, dated 2025):
# Test system: cold allodynia induced by vincristine
# Test: Cold allodynia (acetone application), vincristine animal model, oral cinnamic acid
# Assay type: in vivo, c57/bl6 mice
# Procedure: Six-week-old mice (c57/bl6 mice) were prepared as an experimental animal. Vincristine at a concentration of 1 mg/mL was injected intraperitoneally for 7 consecutive days at 0.1 mg/kg. Significant pain was observed from about 10 days after the first injection. The reaction that occurred by applying about 20 μL of acetone to the soles of both rear paws of the experimental animal was observed and recorded for about 15 s. Behaviors that are criteria for recording are an avoidance reaction, a behavior of shaking the soles of the paw, and a behavior of licking the soles of the paw. The evaluation was repeated a total of three times, and the average of the number of recorded behaviors was confirmed. Experimental animals induced with allodynia were selected through a pre-behavioral experiment and orally administered with 50 mg/kg and 100 mg/kg of cinnamic acid, and the effects after 1 h and 2 h were confirmed.
compound,measurement,setting,value
O=C(O)/C=C/c1ccccc1 [cinnamic acid],time after administration up to which pain relief effect on cold allodynia was shown,high dose 100 mg/kg p.o.,up to 1 h
same,pain relief effect on cold allodynia,"mice, 50 mg/kg oral (FIG. 3)",no significant pain relief effect
same,pain relief effect on cold allodynia compared to control,"mice, 100 mg/kg oral, after 1 h (FIG. 3)",significant pain relief effect
